Measurements: patent publication US8420657B2 (Novartis AG, priority 2008, dated 2013)

How the values were obtained:
GST-JAK2(808-1132) = target: T1, GST-JAK2(808-1132) (Homo sapiens, UniProt O60674); test: JAK2 kinase assay (Caliper mobility shift, LabChip 3000); format: biochemical
T1 construct: GST-JAK2(808-1132); purchased Invitrogen (Carlsbad, USA) #4288
Method in brief: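 Eight-point compound series (final 10–0.003 μM) tested on purchased GST-JAK2 kinase domain (808-1132). Peptide FITC-JAK3tide plus ATP reacted 60 min, 30 °C, then quenched with EDTA; turnover from charge-based separation of substrate and product.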

[1] = test system: JAK1/JAK2-dependent nuclear translocation of STAT1-GFP in HT1080 fibrosarcoma cells; test: STAT1 nuclear translocation assay (Cellomics), IFN-γ stimulated HT1080 STAT1-GFP cells; format: cell-based; settings: Homo sapiens, HT-1080, STAT1 translocation pathway
Source text: The medium-throughput (96-well format) cellular automated fluorescence microscopy Cellomics assay can be routinely used to assess the functional activation of Janus Kinases (JAKs), based on the nuclear translocation of their substrate, Signal Transducer and Activator of Transcription (STAT). Nuclear translocation can be monitored either in HT1080 fibrosarcoma cells stably transfected with STAT1 fused to Green Fluorescence Protein (GFP) or in U-2 OS osteosarcoma cells stably transfected with STAT5 fused to Green Fluorescence Protein (GFP). Stimulation of HT1080 cells with interferon-γ (IFN-γ) results in JAK1/JAK2-dependent nuclear translocation of STAT1-GFP, whereas stimulation of U-2 OS cells with recombinant human erythropoietin (rhEpo) results in JAK2-dependent nuclear translocation of STAT5-GFP, both of which can be quantified using the Cellomics Cyto/NucTrans software package. This assay may be used to provide an assessment of the nuclear-cytoplasmic differential (NCD) of STAT-GFP using Hoechst dye to define the boundaries of the nucleus.
HT1080 fibrosarcoma cells may be obtained from ATCC and can be cultured in alpha Modified Eagle Medium with 10% FCS. Cells can be transfected with pEGFP-N2 STAT1 using Fugene 6 Transfection Reagent following the manufacturers' protocol. 24 hours after transfection the medium can be replaced and selected in 1 mg/ml Geneticin.
Compounds can be dissolved in DMSO to a final stock concentration of 10 mM and stored as aliquots at 4° C. Compounds may be pre-diluted in 100% DMSO at 10 mM, 3 mM 1 mM, 0.3 mM, 0.1 mM, 0.03 mM, 0.01 mM and 0.003 mM. Subsequently, compounds may be diluted in medium and added in 50 μl to the cells. The final compound concentrations tested may be 10 μM, 3 μM 1 μM, 0.3 μM, 0.1 μM, 0.03 μM, 0.01 μM and 0.003 μM and the final DMSO concentration can be 0.1%.
HT1080 STAT1-GFP cells may be seeded at a density of 10,000 cells per well in clear-bottom black 96-well Packard View-Plates™. 16-24 hours later, the cells can be treated for 2 hours with 100 ng/ml IFN-γ, washed twice in pre-warmed PBS and fixed in 200 μl of pre-warmed fixation solution (PBS, 3.7% Formaldehyde) for 10 minutes. The plates may be washed twice in 200 μl PBS and incubated, protected from light, in 100 μl of DNA-staining solution (PBS, 0.5 μg/ml Hoechst-33342) for 1 minute. The plates may then be washed once in PBS, and 200 μl PBS finally added per well. The plates, being finally covered with a black adhesive, may be either read directly or stored at 4° C. for later imaging. Where appropriate, the compounds may be added 30 min before stimulation with IFN-γ.
The plates can be read on a Cellomics® ArrayscanII automated fluorescence microscope plate reader equipped with a Mercury-Xenon white light illumination source and a Zeiss Axiovert inverted microscope, using the XF100 dichroic/emission filter cube and matching excitation filters, 10× magnification, and a 0.3 numerical aperture objective. Image acquisition and analysis can be performed using a customized protocol based on the ‘NuclearTranslocation’ Bioapplication. For each well, multiple images (fields) can be acquired until a minimum of 1000 cells are counted using two 2 channels: Channel 1 (Hoechst)=focus+nuclear mask, Channel 2 (GFP)=signal quantification in mask areas as outlined below. Nuclei may be first identified based on the Hoechst staining and a mask generated for each nucleus that then serves as a template to generate a circle (eroded inwards by 1 pixel) and a 3 pixel-wide collar-like ring (off-set outwards by 1 pixel), in which the nuclear and cytoplasmic intensity of GFP, respectively, are quantified in the corresponding channel. High content analysis yields numerous measurements per cell and the GFP intensity differential between the nuclear and the cytoplasmic masks may be chosen as a measure of sub-cellular STAT-GFP relocation. The resulting values may be averaged for all cells in the well to return a single measurement plus standard deviation. […]

T1 sequence (O60674 808-1132): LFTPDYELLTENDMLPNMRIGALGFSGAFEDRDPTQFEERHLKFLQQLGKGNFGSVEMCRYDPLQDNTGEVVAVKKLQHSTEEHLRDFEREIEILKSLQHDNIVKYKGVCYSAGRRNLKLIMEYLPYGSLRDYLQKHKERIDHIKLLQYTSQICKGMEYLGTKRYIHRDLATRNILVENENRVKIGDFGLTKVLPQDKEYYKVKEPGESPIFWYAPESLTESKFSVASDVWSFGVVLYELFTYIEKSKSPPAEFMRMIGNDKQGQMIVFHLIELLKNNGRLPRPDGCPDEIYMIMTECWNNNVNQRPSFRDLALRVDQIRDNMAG

Compound	IC50 (GST-JAK2(808-1132)) [nM]	IC50 [1] [nM]
CCN(CC)CCOc1cccc(Nc2ncc3ccn(-c4ccc(S(C)(=O)=O)cc4)c3n2)c1 [Example 36, [3-(2-Diethylamino-ethoxy)-phenyl]-[7-(4-methanesulfonyl-phenyl)-7H-pyrrolo[2,3-d]pyrimidin-2-yl]-amine]	< 3	10.9
CN1CCN(C(=O)c2cccc(Nc3ncc4ccn(-c5ccc(S(C)(=O)=O)cc5)c4n3)c2)CC1 [Example 39, {3-[7-(4-Methanesulfonyl-phenyl)-7H-pyrrolo[2,3-d]pyrimidin-2-ylamino]-phenyl}-(4-methyl-piperazin-1-yl)-methanone]	14	1370
CS(=O)(=O)c1ccc(-n2ccc3cnc(Nc4cccc(CN5CCCCC5)c4)nc32)cc1 [Example 41, [7-(4-Methanesulfonyl-phenyl)-7H-pyrrolo[2,3-d]pyrimidin-2-yl]-(3-piperidin-1-ylmethyl-phenyl)-amine]	< 3	75
CS(=O)(=O)c1ccc(-n2ccc3cnc(Nc4ccc(CN5CCCCC5)cc4)nc32)cc1 [Example 42, [7-(4-Methanesulfonyl-phenyl)-7H-pyrrolo[2,3-d]pyrimidin-2-yl]-(4-piperidin-1-ylmethyl-phenyl)-amine]	3.1	170
CS(=O)(=O)c1ccc(-n2ccc3cnc(Nc4ccc(CN5CCOCC5)cc4)nc32)cc1 [Example 44, [7-(4-Methanesulfonyl-phenyl)-7H-pyrrolo[2,3-d]pyrimidin-2-yl]-(4-morpholin-4-ylmethyl-phenyl)-amine]	< 3	142
CN(C)CCN(C(=O)c1cccc(Nc2ncc3ccn(-c4ccc(S(C)(=O)=O)cc4)c3n2)c1)c1ccccc1 [Example 48, N-(2-Dimethylamino-ethyl)-3-[7-(4-methanesulfonyl-phenyl)-7H-pyrrolo[2,3-d]pyrimidin-2-ylamino]-N-phenyl-benzamide]	27	4210
CS(=O)(=O)c1ccc(-n2ccc3cnc(Nc4cccc(C(=O)N5CCOCC5)c4)nc32)cc1 [Example 49, {3-[7-(4-Methanesulfonyl-phenyl)-7H-pyrrolo[2,3-d]pyrimidin-2-ylamino]-phenyl}-morpholin-4-yl-methanone]	14	878
CS(=O)(=O)c1ccc(-n2ccc3cnc(Nc4ccc(C5CCCN5)cc4)nc32)cc1 (stereo not shown) [Example 53, [7-(4-Methanesulfonyl-phenyl)-7H-pyrrolo[2,3-d]pyrimidin-2-yl]-(4-pyrrolidin-2-yl-phenyl)-amine]	< 3	90.5
COCc1ccc(Nc2ncc3ccn(-c4ccc(S(C)(=O)=O)cc4)c3n2)cc1 [Example 54, [7-(4-Methanesulfonyl-phenyl)-7H-pyrrolo[2,3-d]pyrimidin-2-yl]-(4-methoxymethyl-phenyl)-amine]	4.4	3110
CN1CCN(C(=O)c2ccc(-n3ccc4cnc(Nc5ccc(F)cc5)nc43)cc2F)CC1 [Example 58, {2-Fluoro-4-[2-(4-fluoro-phenylamino)-pyrrolo[2,3-d]pyrimidin-7-yl]-phenyl}-(4-methyl-piperazin-1-yl)-methanone]	12	5300
O=C(c1ccc(-n2ccc3cnc(Nc4ccc(F)cc4)nc32)cc1F)N1CCOCC1 [Example 59, {2-Fluoro-4-[2-(4-fluoro-phenylamino)-pyrrolo[2,3-d]pyrimidin-7-yl]-phenyl}-morpholin-4-yl-methanone]	6.5	920
CC(=O)c1ccc(-n2ccc3cnc(Nc4ccc(F)cc4)nc32)cc1 [Example 60, 1-{4-[2-(4-Fluoro-phenylamino)-pyrrolo[2,3-d]pyrimidin-7-yl]-phenyl}-ethanone]	8.1	4080
CN(C)CCN(C)C(=O)c1ccc(Nc2ncc3ccn(-c4ccc(S(C)(=O)=O)cc4)c3n2)cc1 [Example 65, N-(2-Dimethylamino-ethyl)-4-[7-(4-methanesulfonyl-phenyl)-7H-pyrrolo[2,3-d]pyrimidin-2-ylamino]-N-methyl-benzamide]	5.4	99.5

The remaining lines, values ahead:

IC50 (GST-JAK2(808-1132)) [nM]	IC50 [1] [nM]	Compound
< 3	155	CN(C)CCNC(=O)c1ccc(Nc2ncc3ccn(-c4ccc(S(C)(=O)=O)cc4)c3n2)cc1 [Example 40, N-(2-Dimethylamino-ethyl)-4-[7-(4-methanesulfonyl-phenyl)-7H-pyrrolo[2,3-d]pyrimidin-2-ylamino]-benzamide]
< 3	350	CS(=O)(=O)c1ccc(-n2ccc3cnc(Nc4ccc(Cn5ccnc5)cc4)nc32)cc1 [Example 43, (4-Imidazol-1-ylmethyl-phenyl)-[7-(4-methanesulfonyl-phenyl)-7H-pyrrolo[2,3-d]pyrimidin-2-yl]-amine]
< 3	73	CS(=O)(=O)c1ccc(-n2ccc3cnc(Nc4cccc(Cn5ccnc5)c4)nc32)cc1 [Example 47, (3-Imidazol-1-ylmethyl-phenyl)-[7-(4-methanesulfonyl-phenyl)-7H-pyrrolo[2,3-d]pyrimidin-2-yl]-amine]
< 3	184	CN(C)CCNC(=O)c1cccc(Nc2ncc3ccn(-c4ccc(S(C)(=O)=O)cc4)c3n2)c1 [Example 50, N-(2-Dimethylamino-ethyl)-3-[7-(4-methanesulfonyl-phenyl)-7H-pyrrolo[2,3-d]pyrimidin-2-ylamino]-benzamide]
32	4680	CN1CCN(C(=O)c2ccc(-n3ccc4cnc(Nc5ccc(F)cc5)nc43)cc2)CC1 [Example 56, {4-[2-(4-Fluoro-phenylamino)-pyrrolo[2,3-d]pyrimidin-7-yl]-phenyl}-(4-methyl-piperazin-1-yl)-methanone]
< 3	772	O=C(c1ccc(-n2ccc3cnc(Nc4ccc(F)cc4)nc32)cc1)N1CCCC1 [Example 57, {4-[2-(4-Fluoro-phenylamino)-pyrrolo[2,3-d]pyrimidin-7-yl]-phenyl}-pyrrolidin-1-yl-methanone]
7.1	835	O=C(c1ccc(-n2ccc3cnc(Nc4ccc(F)cc4)nc32)cc1)N1CCOCC1 [Example 61, {4-[2-(4-Fluoro-phenylamino)-pyrrolo[2,3-d]pyrimidin-7-yl]-phenyl}-morpholin-4-yl-methanone]
180	5390	O=C(NCCN1CCOCC1)c1ccc(-n2ccc3cnc(Nc4ccc(F)cc4)nc32)cc1 [Example 62, 4-[2-(4-Fluoro-phenylamino)-pyrrolo[2,3-d]pyrimidin-7-yl]-N-(2-morpholin-4-yl-ethyl)-benzamide]
< 3	40	CS(=O)(=O)c1ccc(-n2ccc3cnc(Nc4ccc(CN5CCS(=O)(=O)CC5)cc4)nc32)cc1 [Example 64, [4-(1,1-Dioxido-thiomorpholin-4-ylmethyl)-phenyl]-[7-(4-methanesulfonyl-phenyl)-7H-pyrrolo[2,3-d]pyrimidin-2-yl]-amine]
3.5	75.5	CN(C)C1CCN(C(=O)c2ccc(Nc3ncc4ccn(-c5ccc(S(C)(=O)=O)cc5)c4n3)cc2)CC1 [Example 66, (4-Dimethylamino-piperidin-1-yl)-{4-[7-(4-methanesulfonyl-phenyl)-7H-pyrrolo[2,3-d]pyrimidin-2-ylamino]-phenyl}-methanone]
